Patent US12319672B2, “Alpha-D-galactopyranoside derivatives” (Idorsia Pharmaceuticals Ltd, priority 2019, dated 2025)

Columns and labels:
[1] = molecular target: human Gal-1 (hGal-1); assay: Competitive binding assay: binding of biotinylated hGal-1 to microplate-adsorbed asialofetuin (ASF); details: Activities on hGal-1; mean values of several measurements
Procedure, shortened: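 Spectrophotometric readout (streptavidin-peroxidase, ABTS) of biotinylated galectin retained on ASF-coated wells. Biotinylated hGal-1 or hGal-3, 300-1000 ng/mL, co-incubated with test compound 3 h at 4° C, then washed. Mean IC50 from repeat runs.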

[2] = molecular target: human Gal-3 (hGal-3) (Homo sapiens (Human), UniProt P17931); assay: Competitive binding assay: binding of biotinylated hGal-3 to microplate-adsorbed asialofetuin (ASF); details: Activity on hGal-3; mean values of several measurements
Procedure, shortened: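 For hGal-1, a variant with all six cysteines replaced by serines is preferred. Either galectin, biotinylated at 300-1000 ng/mL, competes with compound for microplate-bound ASF over 3 h at 4° C; peroxidase/ABTS detection gives IC50, averaged.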

Sequence of human Gal-3 (hGal-3) (P17931 whole entry): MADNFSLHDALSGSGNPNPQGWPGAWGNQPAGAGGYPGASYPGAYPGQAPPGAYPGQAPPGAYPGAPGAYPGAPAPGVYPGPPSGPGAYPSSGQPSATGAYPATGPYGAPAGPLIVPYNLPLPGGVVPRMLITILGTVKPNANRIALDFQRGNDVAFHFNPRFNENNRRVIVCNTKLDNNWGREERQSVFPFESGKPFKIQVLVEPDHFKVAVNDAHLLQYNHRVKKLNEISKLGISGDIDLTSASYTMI
Sequence of human Gal-1 (hGal-1) (P09382 2-135 limits assumed): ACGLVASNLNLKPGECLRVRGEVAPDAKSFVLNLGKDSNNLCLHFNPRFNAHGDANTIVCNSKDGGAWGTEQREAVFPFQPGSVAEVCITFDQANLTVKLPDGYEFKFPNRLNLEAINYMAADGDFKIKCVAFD

IC50 [1]	IC50 [2]	Structure (SMILES)
3950 nM	33 nM	CCOC(=O)N1CCC(c2cc(C[C@H]3O[C@H](CO)[C@H](O)[C@H](n4cc(-c5cc(F)c(C)c(F)c5)nn4)[C@H]3OC)no2)CC1 [Ex 1.202]
6740 nM	140 nM	CO[C@@H]1[C@@H](n2cc(-c3cc(F)c(F)c(F)c3)nn2)[C@@H](O)[C@@H](CO)O[C@@H]1CC1CN(C2CCCCC2)C(=O)O1 (mixture of isomers) [Example 5.23, (RS)-3-cyclohexyl-5-(((2R,3R,4S,5R,6R)-5-hydroxy-6-(hydroxymethyl)-3-methoxy-4-(4-(3,4,5-trifluorophenyl)-1H-1,2,3-triazol-1-yl)tetrahydro-2H-pyran-2-yl)methyl)oxazolidin-2-one]
8650 nM	1740 nM	COc1ccc(F)cc1-c1cn([C@H]2[C@@H](O)[C@@H](CO)O[C@H](CC3CC(C4CCN(C(=O)OC(C)(C)C)CC4)=NO3)[C@@H]2O)nn1 (some centres unmarked) [Ex 1.96]
570 nM	63 nM	CO[C@@H]1[C@@H](n2cc(-c3cc(F)c(F)c(F)c3)nn2)[C@@H](O)[C@@H](CO)O[C@@H]1Cc1cc(C2CCN(C(=O)OC(C)(C)C)CC2)on1 [Ex 1.50]
2140 nM	95 nM	CCC(=O)O[C@@H]1[C@@H](n2cc(-c3cc(F)c(F)c(F)c3)nn2)[C@@H](O)[C@@H](CO)O[C@@H]1Cc1cc(C2CCN(C(=O)OC(C)(C)C)CC2)on1 [Example 2.15, tert-butyl 4-(3-(((2R,3R,4S,5R,6R)-5-hydroxy-6-(hydroxymethyl)-3-(propionyloxy)-4-(4-(3,4,5-trifluorophenyl)-1H-1,2,3-triazol-1-yl)tetrahydro-2H-pyran-2-yl)methyl)isoxazol-5-yl)piperidine-1-carboxylate]
1240 nM	61 nM	CO[C@@H]1[C@@H](n2cc(-c3cc(F)c(F)c(F)c3)nn2)[C@@H](O)[C@@H](CO)O[C@@H]1Cn1cc(C2CCN(S(=O)(=O)N(C)C)CC2)nn1 [Example 4.26, 4-(1-(((2R,3R,4S,5R,6R)-5-hydroxy-6-(hydroxymethyl)-3-methoxy-4-(4-(3,4,5-trifluorophenyl)-1H-1,2,3-triazol-1-yl)tetrahydro-2H-pyran-2-yl)methyl)-1H-1,2,3-triazol-4-yl)-N,N-dimethylpiperidine-1-sulfonamide]
3090 nM	330 nM	CO[C@@H]1[C@@H](n2cc(-c3cc(F)c(F)c(F)c3)nn2)[C@@H](O)[C@@H](CO)O[C@@H]1C[C@@H]1CC(c2ccc3[nH]c(=O)oc3c2)=NO1 [Ex 1.30]
4360 nM	61 nM	COCC(C)(C)c1cc(C[C@H]2O[C@H](CO)[C@H](O)[C@H](n3cc(-c4ccc(C)c(F)c4F)nn3)[C@H]2OC)on1 [Ex 1.330]
1600 nM	67 nM	CO[C@@H]1[C@@H](n2cc(-c3ccc(C)c(F)c3)nn2)[C@@H](O)[C@@H](CO)O[C@@H]1Cc1cc(C2CCN(S(C)(=O)=O)CC2)on1 [Ex 1.153]
33000 nM	550 nM	CO[C@@H]1[C@@H](n2cc(-c3ccc(C)c(F)c3F)nn2)[C@@H](O)[C@@H](CO)O[C@@H]1Cc1cc(C(C)c2ccccc2)no1 (some centres unmarked) [Ex 1.342]
2730 nM	290 nM	CO[C@@H]1[C@@H](n2cc(-c3cc(F)c(F)c(F)c3)nn2)[C@@H](O)[C@@H](CO)O[C@@H]1Cc1cc(C2(OC)CCCCC2)no1 [Ex 1.210]
15300 nM	130 nM	CN=[S@@](=O)(C(C)C)N1CCC(c2cc(C[C@H]3O[C@H](CO)[C@H](O)[C@H](n4cc(-c5cc(F)c(F)c(F)c5)nn4)[C@H]3OC)no2)CC1 [Ex 1.138]
2210 nM	270 nM	CO[C@@H]1[C@@H](n2cc(-c3cc(F)c(F)c(F)c3)nn2)[C@@H](O)[C@@H](CO)O[C@@H]1Cc1cc(C(C)(C)CNC(=O)OC(C)(C)C)no1 [Ex 1.315]
